Measured values taken from ChEMBL document CHEMBL4888484, “Replenishing the malaria drug discovery pipeline: Screening and hit evaluation of the MMV Hit Generation Library 1 (HGL1) against asexual blood stage Plasmodium falciparum ,using a nano luciferase reporter read-out” (2022).

Key:
Plasmodium falciparum [1] = experiment: Hit confirmation in dose-response curve in NF54 pLDH assay, at 72h; type: functional, organism-based; parameters: timepoint 72 hour; conditions: NF54, Erythrocyte
Plasmodium falciparum [2] = experiment: Hit confirmation in dose-response curve in NF54 nanoGlo assay, at 72h; type: functional, organism-based, Erythrocyte; parameters: timepoint 72 hour; conditions: Plasmodium falciparum, NF54, Erythrocyte, 72 h
[3] = Hit confirmation in dose-response curve in HepG2 cytotoxicity assay, at 72h; type: toxicity, cell-based; parameters: timepoint 72 hour; conditions: human, HepG2 cells
Plasmodium falciparum [4] = experiment: Hit confirmation in dose-response curve in Dd2 pLDH assay, at 72h; type: functional, organism-based; parameters: timepoint 72 hour; conditions: Dd2, Erythrocyte
Plasmodium falciparum [5] = experiment: Hit confirmation in dose-response curve in NF54 nanoGlo assay, at 12h; type: functional, organism-based, Erythrocyte; parameters: timepoint 12 hour; conditions: Plasmodium falciparum, NF54, Erythrocyte, 12 h

Compound | IC50 (Plasmodium falciparum [1]) [µM] | IC50 (Plasmodium falciparum [2]) [µM] | IC50 at 72 h [3] [µM] | IC50 (Plasmodium falciparum [4]) [µM] | IC50 (Plasmodium falciparum [5]) [µM]
Cc1cc2nc(C)c(=O)n(Cc3ccc(C(=O)NCCN4CCCC[C@@H]4C)cc3)c2cc1C | 5.5 | 4.17 | > 10 | 6.92 | > 10
CC1CC(C(=O)Nc2[nH]c(=O)ncc2F)CC(C)(C)C1 (stereo not given) | 0.00331 | 0.00204 | > 10 | > 10 | 0.49
Cc1nnc(-c2ccc3ccn(CC(=O)Nc4ccc(F)c(Cl)c4)c3c2)o1 | 1 | 2 | > 10 | 2.69 | 3.16
Cc1ccc(CC[C@H]2Nc3ccccc3C(c3ccccc3)(c3ccccc3)O2)o1 | 3.47 | 1.86 | > 10 | 5.37 | 9.33
COc1ccc(CCNC(=O)C2CCN(c3nccn4nc5c(c34)CCCC5)CC2)cc1OC | > 10 | 4.07 | > 10 | > 10 | 8.91
Cc1ccc(OCC(=O)Nc2cc(C)nn2-c2nc3c(cnn3-c3ccc(C)c(C)c3)c(=O)[nH]2)cc1 | 4.07 | 2.09 | > 10 | 6.92 | > 10
CC(=O)c1cc(-c2cc(O)cc(CC[C@H]3CCCCN3)c2)ccc1O | 2.04 | 1.51 | > 10 | 1.55 | 2.95
CC1(C)CCC(Nc2ccc(C(N)=O)nn2)CC1 | 0.0871 | 0.49 | > 10 | > 10 | > 10
CCc1cc(=O)[nH]c(-n2nc(C3CC3)cc2NC(=O)C2CCCCC2)n1 | 4.07 | 1.26 | > 10 | 3.24 | > 10
COc1c(C)cc(C(=O)[C@H]2CCCN(c3cc(N)ncn3)C2)cc1C | > 10 | 5.37 | > 10 | > 10 | 5.5
Cc1c(C)c2ccc(NC(=O)c3cc4ccccc4o3)cc2[nH]c1=O | 8.13 | 1.66 | > 10 | 3.24 | 3.47
c1ccc(C(c2ccccc2)N2CCN(c3nn4cnnc4c4ccccc34)CC2)cc1 | 3.24 | 1.74 | > 10 | 2.82 | 2.69
CC1CCN(C[C@H]2CCCCCN2C(=O)NCCc2ccccc2)CC1 | 2.45 | 3.98 | > 10 | 6.31 | > 10
N#Cc1c(NC(=O)Nc2cn3ccccc3c2C#N)cn2ccccc12 | 1.35 | 0.302 | > 10 | 1 | > 10
Cc1nn(-c2nc3ccccc3[nH]2)c2c1[C@@H](c1cccnc1)CC(=O)N2 | 6.46 | 1.55 | > 10 | > 10 | 2.19
O=c1[nH]c(=O)n(S(=O)(=O)c2ccccc2)cc1F | 0.00347 | 0.00275 | > 10 | > 10 | 2.04
COc1ccc(CCNC(=O)c2cnn3c4c(cnc23)C[C@@H](C)CC4)cc1OC | > 10 | 3.02 | > 10 | > 10 | 1.26
C=Cn1cc[n+](CC(=O)c2ccc(-c3ccccc3)cc2)c1 | 3.47 | 3.09 | > 10 | 2.63 | > 10
COc1cccc(-c2nn(-c3nc(-c4ccccc4)cc(C(F)(F)F)n3)c(-c3cccc(OC)c3)c2Cl)c1 | 8.32 | 6.17 | > 10 | > 10 | > 10

Compound | IC50 (Plasmodium falciparum [1]) [µM] | IC50 (Plasmodium falciparum [2]) [µM] | IC50 at 72 h [3] [µM] | IC50 (Plasmodium falciparum [4]) [µM] | IC50 (Plasmodium falciparum [5]) [µM]
CC(C)c1ccc(Oc2cnn(-c3cccc(Cl)c3)c(=O)c2Nc2cccc(C(=O)NC3CC3)c2)cc1 | 10 | 3.02 | > 10 | 6.61 | > 10
N#Cc1nc2c(C#N)c(N)n(CCc3ccccc3)c2nc1C#N | 0.347 | 1.38 | > 10 | 1.45 | 2.04
O=C(Nc1nncs1)c1cccc(C(=O)Nc2nncs2)n1 | 3.24 | 1.95 | > 10 | 3.31 | > 10
COc1ccccc1-n1c(=O)n(C2CCCC2)c(=O)c2c1ncn2Cc1ccccc1Cl | 10 | 3.02 | > 10 | 9.55 | > 10
Cc1cc(=O)[nH]c(-n2nc(C3CC3)cc2NC(=O)C(C)(C)Oc2ccc(Cl)cc2)n1 | > 10 | 1.1 | > 10 | 5.01 | > 10
Cc1nc(N2CCC(c3nc(-c4ccccc4)no3)CC2)c2c(C)noc2n1 | > 10 | 2.51 | > 10 | > 10 | 1.86
COc1cc(F)c([C@H](C)NC(=O)N(C)Cc2ccco2)cc1OC | > 10 | 1.86 | > 10 | 10.7 | 0.891
O=C(c1ccccc1)c1cc(Cl)ccc1NC(=O)[C@H]1CC(=O)N(c2ccc(F)cc2)C1 | 3.39 | 2.24 | > 10 | 4.17 | 4.37
Cc1n(CC(=O)c2ccccc2)c2ccccc2[n+]1CC(=O)c1ccccc1 | 1.55 | 1.05 | > 10 | 1.62 | > 10
CC(C)c1nc(C(=O)Nc2[nH]c(=O)ncc2F)cs1 | 0.00214 | 0.00195 | > 10 | > 10 | 0.955
CCc1cccc(NC(=O)Cn2ccc3ccc(-c4nnc(C)o4)cc32)c1 | 2.69 | 1.82 | > 10 | 2.4 | 2.63
CC(C)C(NC(=O)COc1ccccc1)C(=O)NCC(c1ccccc1Cl)c1c[nH]c2ccccc12 (stereo not given) | 9.12 | 2.4 | > 10 | 7.76 | 3.39
COC1CCCC1NC(=O)Nc1ncc(Br)cc1C (stereo not given) | 1.38 | 2 | > 10 | 2.29 | 6.76
COc1cc2ncc3c(-c4ccc(C)c(C)c4)n[nH]c3c2cc1OC | > 10 | 4.27 | > 10 | 5.25 | 7.59
O=C(Nc1c(S(=O)(=O)c2ccccc2)c2nc3ccccc3nc2n1CCc1ccccc1)c1ccc(Cl)cc1 | 11.2 | 1.1 | > 10 | 5.62 | 0.603
Cc1cc(C(=O)NC2CC(C)n3ccnc32)nn1C(C)C (stereo not given) | 0.1 | 2.45 | > 10 | > 10 | > 10
CCC[N+]1(CC#C[C@@](O)(c2ccccc2)C2(C)CCCC2)CCCCC1 | 3.47 | 3.24 | > 10 | 3.24 | > 3.16
S=c1cc(-c2ccccc2)n(Cc2ccco2)c2c1CCCC2 | 6.46 | 2.57 | > 10 | 6.46 | 8.13
